Results: patent US7951359B2, “Compositions and methods for therapy or prevention of chemotherapy-induced neuropathy” (Merck Serono SA, priority 2004, dated 2011)
Values belong to the compound of their own block, whether it stands above or below them.

Legend:
[1] = test system: taxol induced neuropathy; test: Electrophysiological monitoring in taxol induced neuropathy, co-administration; type: in vivo, rat
Protocol: The aim of the following experiment was to investigate the potential neuroprotective effect of IL6 in an additional model of chemotherapeutic induced neuropathy mediated by taxol. The potential preventive effect of IL-6 co-administration was tested. Administration of IL-6 was initiated together with taxol administration. The doses of IL-6 of 3 and 10 μg/kg were administered daily or in the case 10 μg/kg also only 3 times per week.
Females 10 weeks old aged Dark Agouti rats were used, 12 animals per group were included as following
The taxol was diluted in a solution of cremophor/ethanol/dextrose 5% and administered twice a week during 4 weeks.
4-MC and test compounds treatment was initiated the first day of intoxication and was stopped at the end of the study.
The study was performed on 8 weeks (1 week for the baseline, 4 weeks for the taxol intoxication and 3 weeks of recovery).
Control, taxol, and taxol-IL-6 co-administered group of rats at the indicated doses were subjected to electrophysiological monitoring to assess the effect of IL-6 in taxol-induced loss of fiber/nerve function.
(§1) Sensitive nerve conduction velocity (SNCV) was also recorded. The tail skin electrodes were placed as follows: a reference needle inserted at the base of the tail and an anode needle placed 30 mm away from the reference needle toward the extremity of the tail. A ground needle electrode was inserted between the anode and reference needles. The caudal nerve was stimulated with a series of 20 pulses (for 0.2 ms) at an intensity of 12.8 mA. The velocity was expressed in m/s.
H-wave reflex was recorded in the hind footpad muscle after stimulation of the sciatic nerve. […] The sciatic nerve was stimulated with a single 0.2 ms pulse at supramaximal intensity. The amplitude (mV) of H wave and the proportion of animal lacking H wave response were the parameters studied.

[2] = test system: breast (MCF7) tumor cell line; test: Cell survival by acid phosphatase activity assay, MCF7; type: cell-based, human; details: 4 days; for decrease in cell survival versus control: cisplatin (2.5 μM), carboplatin (25 μM)
Protocol: (§2) The human lung (SK-MES1) and breast (MCF7) tumor cell lines were obtained from ATCC. The cell lines were maintained in Dulbecco's MEM medium (Gibco; Invitrogen, Cergy-Pontoise, France, ref. 41965039) supplemented with 1% antibiotic/antimicotic mixture solution (Gibco, ref. 15240062), and 10% heat-inactivated foetal bovine serum (Gibco, ref. F7524, batch 92K3387). The cells were amplified in Nunc tissue culture flasks (80 cm2) in a humidified incubator at 37° C. with 5% CO2 in 95% air. Cultures were sub-cultured twice a week.
(§3) The enzymatic activity has been proven to be proportional to the number of living cells (Ueda et al.; 1994).
(§4) Three days after the last replication, tumor cells were seeded in 96 well-plates (TPP, VWR International, Fontenay-sous-bois, France) at a density of 1,500 cells (MCF7 line) or 3,000 cells (SK-MES1 line) per well, in a total volume of 100 μl/well and incubated overnight in a humidified incubator at 37° C. with 5% CO2 in 95% air. […] IL-6 (in buffer solution at 1.8 mg/ml, PH: 7) was immediately added at concentrations of 0, 3, 12, 50 or 200 ng/ml.
(§5) Four days after the initiation of the intoxication, acid phosphatase activity (Example 21) in each cell culture was assessed.
(§6) After removal of the culture medium, cells were rinsed with phosphate-buffered saline (PBS, Gibco, ref. 14190-094) and further incubated for 90 min at 37° C. in 100 μl of buffer containing 0.1 mol/l sodium acetate (pH 5.5), 0.1% Triton X100 (Sigma, ref. T9284) and 10 mmol/l p-nitrophenyl phosphate (Sigma, ref. N9389). Reaction was stopped by addition of 10 μl of 1 mol/l sodium hydroxide aqueous solution (Laboratoire de Produit Chimiques de la Robertsau, Strasbourg, France; ref. 28.252.293). Absorbance of the colored solution was measured at 405 nm in a microplate reader (Labsystems Multiskan Bichromatic, EST-LAB, Strasbourg, France).
(§7) The results were expressed as percentage of optical density of the control cell cultures. The heights of the columns represent mean±SEM of percentages of 5-6 wells from two independent cultures.

[3] = test system: lung (SK-MES1) tumor cell line; test: Cell survival by acid phosphatase activity assay, SK-MES1; type: cell-based, human; details: 4 days; for decrease in cell survival versus control: cisplatin (2.5 μM), carboplatin (25 μM)
Protocol: as §2, §3, §4, §5, §6, §7

[4] = test system: vincristine induced neuropathy; test: Hot plate test in vincristine-treated rats; type: in vivo, rat
Protocol: (§8) The rat was placed inside a glass cylinder of 17 cm height and 21 cm diameter on a heating-plate maintained at 52° C. (Medite OTS 40, Microm, Francheville, Rhône, France). The animal behavior was observed, particularly the licking of a foot and the adjusted leap. The latency before licking a foot or before jumping to escape the heat (adjusted leap) was recorded. The time needed to feel the thermal pain is related to the thermal sensitivity and tends to increase when thermal sensitivity is altered.

[5] = test system: vincristine induced neuropathy; test: Electromyography (EMG) in vincristine-treated rats; type: in vivo, rat
Protocol: In parallel to behavioral tests, electrophysiological test as described in Example 17, were carried out to evaluate fiber/nerve function in vincristine-administered rats vis-à-vis rats co-administrated with IL-6.
(§9) Electrophysiological recordings were performed using a Neuromatic 2000M electromyograph (EMG) (Dantec, Les Ulis, France). Rats were anaesthetized by IP injection of 60 mg/kg ketamine chlorhydrate (Imalgene 500®, Rhône Merieux, Lyon, France). The normal body temperature was maintained around […] with a heating lamp and verified using a contact thermometer (Quick, Bioblock Scientific, Illkirch, France) placed on the tail surface.
(§10) Compound muscle action potential (CMAP) of M wave signal (or electrically evoked muscle potential) was recorded in the gastrocnemius muscle after stimulation of the sciatic nerve. M wave reflects the current developed during the action potential of muscle fibers. A reference electrode and an active needle were placed in the hind paw. A ground needle was inserted on the lower back of the rat. Sciatic nerve was stimulated with a single 0.2 ms pulse at supramaximal intensity. The […] of the motor wave was recorded and expressed in ms.
as §1
(§11) H-wave reflex was recorded in the hind footpad muscle after stimulation of the sciatic nerve. A reference electrode and a ground needle were placed on the lower back of the rat. The sciatic nerve was stimulated with a single 0.2 ms pulse at supramaximal intensity. The amplitude (mV) of H wave and the proportion of animal lacking H wave response were the parameters studied.

[6] = test system: vincristine induced neuropathy; test: Morphometric analysis of sciatic nerve in vincristine-treated rats; type: in vivo, rat
Protocol: Histomorphometric analyses were carried out as described in Example 18 at the completion of the experiments, to explore morphologic changes occurring in fiber and axon diameter and myelin thickness in rats treated with vincristine and in rats co-administrated with IL-6.
With vincristine, morphometric analysis was performed 2 week after the end of vincristine administration on 3 animals per group. The animals were anesthetized by IP injection of 100 mg/kg Imalgène 500®. A 5 mm segment of sciatic nerve was excised, fixed overnight with 4% glutaraldehyde (Sigma, L'Isle d'Abeau-Chesnes, France) in phosphate buffered saline (PBS) (pH=7.4) and maintained in 30% sucrose and stored at 4° C. until further processing. At the time of use, the nerve sample was post-fixed in 1% osmium tetroxide (Sigma, L'Isle d'Abeau-Chesnes, France) in PBS for 2 h, dehydrated in serial alcohol solution, and embedded in Epon. Embedded tissues were then placed at 70° C. during 3 days to allow polymerization of the tissue wax. Cross sections of 1.5 μm thick were performed and they were stained with a 1% toluidine blue solution (Sigma, L'Isle d'Abeau-Chesnes, France) for 2 min, dehydrated and mounted on Eukitt. Twelve sections per sample were examined using an optical microscope (Nikon, Tokyo, Japan) and analyzed using, a semi-automated digital image analysis software (Biocom, France). The fiber diameter (a), axon diameter (b), and myelin thickness (c) were measured as illustrated below.

[7] = test system: cisplatin induced neuropathy; test: Hot plate test in cisplatin-treated rats, co-administration; type: in vivo, rat; details: 4-MC 10 μg/kg IP daily; 3 weeks
Protocol: as §8

[8] = test system: cisplatin induced neuropathy; type: in vivo, rat; details: 4-MC 10 μg/kg IP daily
Protocol: Electrophysiological monitoring in cisplatin-induced neuropathy model was carried out as described in Example 17. The objective was to assess the effect of co-administration with IL-6 in cisplatin-induced loss of fiber/nerve function.
as §9, §10, §1, §11

[9] = test system: cisplatin induced neuropathy; test: Morphometric analysis of sciatic nerve in cisplatin-treated rats, co-administration; type: in vivo, rat; details: 4-MC 10 μg/kg IP daily
Protocol: The total number of fibers per nerve section was obtained from 3 randomized slices of each sample. The counting was performed on 2 selected fields per slice.

[10] = test system: cisplatin induced neuropathy; test: Hot plate test, therapeutic treatment of established cisplatin neuropathy; type: in vivo, rat; details: 4-MC 10 μg/kg IP daily from day 23; after 2 weeks; p≦0.05
[11] = test system: cisplatin induced neuropathy; type: in vivo, rat
Protocol: The drug was diluted in 0.9% sterile aqueous solution of sodium chloride.
4-MC was diluted in 0.9% sterile aqueous solution of sodium chloride and injected daily via IP route from day 23 to the end of the experiment.
Electrophysiological tests described in Example 17, were carried out in parallel to the behavioral tests (described in the preceding example) in cisplatin-established neuropathy model. The objective was to assess the therapeutic effect of IL-6 in cisplatin-induced loss of fiber/nerve function.
as §9, §1, §11

[12] = test system: cisplatin induced neuropathy; test: Morphometric analysis, therapeutic treatment of established cisplatin neuropathy; type: in vivo, rat; details: 4-MC 10 μg/kg IP
From the text: The number of degenerated and non-degenerated fibers on the entire surface of each nerve section was counted by an operator in a blinded fashion. All the results (except the data expressed as ratio value) were reported as percentage of changes in reference to the control value.

[13] = test system: vincristine induced neuropathy; test: Walking test (motor coordination) in vincristine-treated rats; type: in vivo, rat; details: vincristine alone; after 2 and 3 weeks
Protocol: The motor coordination was assessed using walking test, which consists at measuring the time taken by a rat placed at one extremity of a 100 cm-long horizontal wooden rod of 5.5 cm diameter, 40 cm above the table, to cover a distance of 1 m on this rod. Three tests (maximum duration: 60 s each) were performed, and the mean value was calculated and retained as characteristic value. If the animal fell down, it was scored with a maximum of 60 s.

[14] = test system: vincristine induced neuropathy; test: Hindpaw skin biopsy, density of dermal nerve fibers in vincristine-treated rats; type: in vivo, rat; details: vincristine intoxication
Protocol: A 5-10 mm diameter area of skin was punch-biopsied from the hindpaw. Skin samples were immediately fixed overnight in paraformaldehyde at 4° C., incubated (overnight) in 30% sucrose in 0.1 M PBS for cryoprotection, embedded in OCT and frozen at −80° C. until cryocut. 50 μm-thick cryosections were then cut vertical to the skin surface with a cryostat. Free-floating sections were incubated for 7 days in a bath of rabbit anti-protein gene product 9.5 (1:10000; Ultraclone, Isle of Man, UK) at 4° C. The sections were then processed to reveal immunoreactivity according to the ABC peroxidase method. Briefly, they were incubated in for 1 hr with biotinylated anti-goat antibody (1:200), then 30 min in the avidin biotinylated complex at room temperature. Peroxidase activity was visualized using DAB system. Sections were then counterstained with eosin or hematoxylin. Sections were dehydrated, cleared with bioclear and mounted on eukitt. The number of dermal nerves of 3 microscope fields was counted manually under 40 magnification view.

[15] = Body weight in vincristine induced neuropathy rat model; details: vincristine 0.15 mg/kg, vehicle-treated
Protocol: The experiments were carried out employing 10 weeks-old female Dark Agouti rats (Janvier, Le Genest-St-Isle, France). […] 4-MC is a standard compound with an established neuroprotective action, used at the dose of 10 μg/kg (n=10).
Vincristine (Tocris, Illkirch, France) was administered by an injection of a vincristine solution from day 0 to 5, from day 8 to 12 and from day 15 to 16 at a dose of 0.15 mg/kg. A vincristine solution (0.03 mg/ml) was prepared in saline.
IL-6 was diluted in saline containing 0.02% BSA and was administered via subcutanuous route every day from the first day of vincristine administration until the end of the experiment.

- SNCV versus non-treated control ([1]; taxol alone, 3 weeks): significantly slower
- H wave latency ([1]; taxol alone, 3 weeks after taxol treatment): significant increase
- H wave latency ([1]; taxol alone, 6 weeks after taxol treatment): dramatically increased
Compound: CC(=O)O[C@H]1C(=O)[C@@]2(C)[C@H]([C@H](OC(=O)c3ccccc3)[C@]3(O)C[C@H](OC(=O)[C@H](O)[C@@H](NC(=O)c4ccccc4)c4ccccc4)C(C)=C1C3(C)C)[C@]1(OC(C)=O)CO[C@@H]1C[C@@H]2O [taxol]
- decrease in cell survival ([2]; taxol 30 nM): about 55%
- decrease of cell survival ([3]; taxol, 'this concentration' (30 nM)): about 70%

Compound: N.N.O=C([O-])C1(C(=O)[O-])CCC1.[Pt+2] [carboplatin]
- decrease in cell survival versus control [2]: about 50%
- decrease in cell survival versus control [3]: about 50%

Compound: Cc1ccc(O)c(O)c1 [4-MC, 4-methylcatechol]
- prevention of vincristine-induced nociception loss (hot plate) ([4]; 4-MC 10 μg/kg IP daily): did not appear to have any major preventive effect
- protection against loss of M wave amplitude ([5]; 4-MC 10 μg/kg IP daily with vincristine): protect the loss of M wave amplitude only transiently
- decrease in axon diameter by vincristine ([6]; 4-MC 10 μg/kg IP daily): significantly reduced/prevented the decrease in axon diameter
- percentage of degenerated fibers in vincristine treated rats ([6]; 4-MC 10 μg/kg IP daily): decreased the percentage of degenerated fibers
- vincristine-induced fiber shrinkage ([6]; 4-MC 10 μg/kg IP daily): protected
- first reaction time versus cisplatin alone [7]: slight but not significant decrease
- loss of H wave induced by cisplatin [8]: only a delayed and transient effect
- decrease in SNCV by cisplatin ([8]; only after 5 weeks): transiently prevented the decrease in SNCV
- cisplatin-induced decrease in fiber or axon diameter [9]: protected against the decrease in cisplatin-induced fiber diameter or axon
- loss of myelin wall by cisplatin [9]: significant protection against loss of myelin wall
- time of the first reaction to heat [10]: Reduction of the time of the first reaction to heat
- cisplatin-induced H wave loss in amplitude ([11]; 4-MC 10 μg/kg IP daily from day 23): reversed the cisplatin-induced H wave loss in amplitude
- SNCV in cisplatin-treated animals ([11]; 4-MC 10 μg/kg IP, significant only 2 weeks after treatment initiation): appeared to improve SNCV
- cisplatin-induced myelin sheath thinning [12]: did not interfere with cisplatin-induced myelin sheath thinning
- proportion of degenerated fibers ([12]; p>0.05): slight but not significant reduction
- prevention of H-wave amplitude reduction by taxol ([1]; 4-MC 10 μg/kg daily i.p.): not significant
- H wave latency under taxol ([1]; 4-MC 10 μg/kg daily i.p., weeks 3, 5, 6 and 7): improvement in H wave latency

- walking test performance versus non-treated controls [13]: significantly reduced
- hot plate first reaction to heat versus control ([4]; vincristine alone, significant at 3 and 5 weeks): delayed first reaction to heat
- loss of M wave amplitude versus control ([5]; vincristine alone, 2 weeks): about 20%
- loss of SNCV ([5]; vincristine alone, 5 weeks after treatment initiation): about 10 m/s
- axon diameter ([6]; vincristine alone): significantly decreases
- myelin thickness versus control ([6]; vincristine alone): significantly reduced
- percentage of degenerated fibers versus control ([6]; vincristine alone): two times higher
- sciatic nerve fiber diameter versus control ([6]; vincristine alone): significant decrease in fiber diameter
Compound: CC[C@]1(O)C[C@H]2CN(CCc3c([nH]c4ccccc34)[C@@](C(=O)OC)(c3cc4c(cc3OC)N(C=O)[C@H]3[C@@](O)(C(=O)OC)[C@H](OC(C)=O)[C@]5(CC)C=CCN6CC[C@]43[C@@H]65)C2)C1 [vincristine]
- percentage of myelinated fibers versus control ([6]; vincristine alone): less than that in the control non-treated group
- decrease in the density of epidermal nerve fibers [14]: more than 50%
- decrease in cell survival versus control [2]: about 50%
- decrease in cell survival versus control [3]: about 50%
- body weight lost at completion of vincristine administration [15]: about 10%
